Data on three molecules can be found in ChEMBL document CHEMBL5370675, “Identification of HuR-RNA Interfering Compounds by Dynamic Combinatorial Chemistry and Fluorescence Polarization” (ACS Med Chem Lett, 2023).

The nature of data set [1]: Retention time of the compound in acetate buffer by HPLC-UV analysis. The format is physicochemical.
Data set [2] concerns the target ELAV-like protein 1 (Homo sapiens) (UniProt Q15717). The data set is described as follows: Inhibition of HuR (unknown origin) assessed as reduction in protein-mRNA interaction at 0.5 to 100 uM preincubated for 1 hr followed by mRNA addition and measured after 1.5 hrs by fluorescence polarization assay. The note with it: dose 0.5-100 µM, time 2.5 hrs.

Activity calls are given as the source filed them. The rule behind the calls is not given here.

Chain of ELAV-like protein 1 (Homo sapiens) (Q15717 whole entry): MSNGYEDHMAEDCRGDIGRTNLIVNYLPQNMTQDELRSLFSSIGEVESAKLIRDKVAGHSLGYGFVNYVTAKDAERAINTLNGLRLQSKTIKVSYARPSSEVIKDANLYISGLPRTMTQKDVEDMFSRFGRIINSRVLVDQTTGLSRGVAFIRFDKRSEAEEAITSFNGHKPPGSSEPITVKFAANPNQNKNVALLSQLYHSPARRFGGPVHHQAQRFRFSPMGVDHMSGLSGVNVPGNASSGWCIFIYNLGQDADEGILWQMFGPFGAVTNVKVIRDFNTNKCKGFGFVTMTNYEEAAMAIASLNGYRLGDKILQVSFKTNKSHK

`O=C(COc1ccc(Cl)cc1Cl)N/N=C/c1csc(Br)n1` yielded a Retention_time in data set [1] of 12.86 min. Moreover, the inhibition entry in data set [2] is “Active”.

In the case of `Cc1cccc(Cn2nc(C(C)(C)C)cc2C(=O)N/N=C/c2csc(Br)n2)c1`, the inhibition result in data set [2] is “Active”.

On to `Cc1cccc(Cn2nc(C(C)(C)C)cc2C(=O)N/N=C/c2ccc3cn[nH]c3c2)c1`, for which, in data set [2], the inhibition entry is “Active”.
